According to US20060189539A1, “Novel GnRH analogues with antitumour effects and pharmaceutical compositions thereof” (priority 1994, published 2006):

What was measured:
[1] = tested on: LH release from rat hypophysis; details: superfusion; cited from earlier work
[2] = tested on: MCF-7 and MDA-MB-231 cell lines; details: 30 μM
Protocol: The procedure of treatment was as follows. After trypsinization the cells, 400,000 cells of MCF-7, MDA-MB-231 human mammary carcinoma, PC3 human prostate carcinoma or Ishikawa human endometrium tumour each were passed into Petri dishes of 10 cm in diameter. Starting from the day following transfer, the cells were treated with the substances to be tested in solution prepared with the nutrient medium during the exponential growth phase. The cultures were treated with 1 to 50 μM (calculated for the total volume of the culture) of MI-1544 GnRH antagonist, MI-1892 chicken GnRH antagonist or SJ-1004 GnRH antagonist analogues as well as synthetic lamprey GnRH-III hormone in every two days and the cell count was determined on the 7th day.

[3] = tested on: Ishikawa endometrium tumour cell culture; assay: Inhibition of colony formation (dose-survival), Example 48; assay type: cell-based, human; details: within the dose range used (1-50 μM)
Text: (§1) MCF-7 human mammary carcinoma cell line was stabilized in 1973 by Soule et al. from the pleural fluid of a patient suffering from mammary carcinoma. MDA-MB-231 human mammary carcinoma cell line was isolated and stabilized by Cailleau et al. in 1974 similarly from pleural fluid. Both cell lines grow in monolayer. MCF-7 and MDA-MB-231 human mammary carcinoma cell lines are maintained in plastic flasks (Greiner), in Dulbecco-modified Eagle-MEM (DMEM, GIBCO) liquid nutrient medium containing 10% of fetal calf serum. MCF-7 cell line is estradiol receptor (ER)-positive containing proteins specifically binding GnRH. Thus, it represents, a useful model system for investigating the direct effect of GnRH mediated by the GnRH receptor. Being ER-negative and GnRH receptor-positive, MDA-MB-231 cell line is similarly suitable to study the direct effect of GnRH. PC3 human prostate carcinoma cell line was stabilized in cell culture by Kaighn et al. in 1979. The cells are of epithelial type and form compact colonies in clonogenic assays. The Ishikawa cell line originates from human endometrial adenocarcinoma [M. Nishida et al.: Acta Obstet. Gynecol. Jpn. 37, 1103-1111 (1985)], it is epithelial in its character and contains steroid-as well as GnRH receptors.
(§2) The examination gives accurate information about the cell-damaging effect of the substance tested as a function of varying doses. The treatment was carried out once; the colonies formed from the surviving cells were counted after 8-12 days. […] A part of the arrested cells again entered the cycle, an other part of them might be destroyed (apoptosis). […] In the case of a dose-response investigation, colonies containing less than 15 cells were not counted. 300 cells were put into each Petri dishes of 3.5 cm in diameter. The treatment was once carried out 24 hours after setting, then the colonies formed were counted after 8-12 days. The cells were treated once after 24 hours with 1-50 μM of various GnRH analogues of Examples above or with 1-50 μM of GnRH-III, respectively. The percentages of inhibition obtained on MCF-7, MDA-MB-231, PC3 and Ishikawa cells, respectively, together with the dose of the active agent used are shown in Table VIII.

[4] = tested on: PC3 prostate tumour cell culture; assay: as above; assay type: cell-based, human; details: 50 μM
Text: as §1, §2

ovulation of female rats = details: prolonged treatment for three cycles, even in high doses; cited from earlier work
MDA-MB-231 xenograft = assay: In vivo antitumour effect on MDA-MB-231 xenograft; set-up: species or system immunosuppressed CBA/Ca mice
Protocol: The immunosuppression of mice was carried out by using the method of Steel et al. (1978).
CBA/Ca female mice of about 6 weeks old were thymectomized and then, after one week, they were irradiated with 60Co (whole body irradiation; the lethal dose is 9.5 Gray). Within 24 hours 3 to 5×10^5 myelocytes were injected to the animals. Beneath the skin of the immunosuppressed mice 2×10^7 tumour cells or, in the case of later passages, about 2 mm^3 of tumour cells or in the case of later, additional passages about 2 mm^3 of tumour pieces were implanted. […] The treatment with steroid hormone was stopped by at least one week before beginning the investigation.
Recent investigations have begun on 28 animals bearing MCF-7 xenograft .and on 28 animals bearing MDA-MB-231 xenograft. On animals bearing MCF-7 tumour the treatment was commenced in the 5th week following xeno-transplantation; the tumour volume was 205 to 225 mm^3. On animals bearing MDA-MB-231 tumour, the treatment was started in the 4th week after xeno-transplantation with a tumour volume of 140 to 150 mm^3. […] The control groups were daily treated with physiological saline s.c. (Each treated group consisted of 7 animals.)
A more recent study was started on 28 animals bearing. MDA-MB-231 xenograft. The treatment was begun in the 4th or 5th week following xenotransplantation. The tumour volume was 0.165 to 0.194 cm3. […] (For treatment of the control group, see the preceding Examples). Each group consisted of 7 animals.

[5] = tested on: MCF-7 human mammary carcinoma cell line; assay: Inhibition of colony formation (dose-survival), Example 48; assay type: cell-based; details: 50 μM
MCF-7 cells = assay: Inhibition of cell division (cell count), Example 49; assay type: cell-based, human; details: MCF-7 (2x); 30 μM
Protocol: After being treated with trypsin, 300,000 each of MCF-7, MDA-MB-231, PC3 or Ishikawa cells, respectively, were passed into Petri dishes of 10 cm in diameter. Starting from the day following the setting, the cells were treated with 1-50 μM of the GnRH analogue in the exponential growth phase. During the experiment lasting for 5 days, the cells were treated in every two days with the peptide hormone dissolved in the nutrient medium, then the cell count was determined on the sixth day.

[6] = 1 × 100 μg daily s.c., week 6 (Table V)

In the case of NCCCC[C@H](NC(=O)[C@H](Cc1c[nH]c2ccccc12)NC(=O)[C@H](CC(=O)O)NC(=O)[C@H](Cc1c[nH]cn1)NC(=O)[C@H](CO)NC(=O)[C@H](Cc1c[nH]c2ccccc12)NC(=O)[C@H](Cc1c[nH]cn1)NC(=O)[C@@H]1CCC(=O)N1)C(=O)N1CCC[C@H]1C(=O)NCC(N)=O [GnRH-III, reference compound], the “LH-releasing effect compared with human GnRH” value [1] is given as “about thousand times weaker”, the “Inhibition of cell proliferation” value [2] is given as 40-39% and the “Inhibition of colony formation” value [3] is given as “did not inhibit”. The “% Inhibition of colony formation” value [4] was 21%, the Inhibition of ovulation (ovulation of female rats) was “did not inhibit the ovulation” and the “Effect on the rate of tumour growth” value (MDA-MB-231 xenograft; 100 μg daily s.c.) was “did not inhibit the rate of tumour growth”. For the same compound, the “Tumour volume as control (%)” value (MDA-MB-231 xenograft; 1 × 100 μg daily s.c., week 4) was 85%, the “Tumour volume as control (%)” value (MDA-MB-231 xenograft; 1 × 100 μg daily s.c., week 6) was 85% and the Inhibition % (MDA-MB-231 xenograft; [6]) was 15%. The “Tumour volume as control (%)” value (MDA-MB-231 xenograft; [6]) was 85%.

For “Ac-D-Trp1,3,D-Cpa2,{Lys[n-poly(N-vinyl pyrrolidone-co-maleic acid)-]}5,[a-Asp(DEA)]6,D-Ala10-GnRH [Compound P-1892]”, the “% Inhibition of colony formation” value [5] was 26% and the “% Inhibition of cell proliferation” value (MCF-7 cells) was 0%.
